“Also recorded” adds a separate entry of the source. Each block holds one molecule with its values, some of them ahead of it. Square brackets hold non-standard residues; d marks the D form. Ends that are not written are not given here. Peptide text beside a SMILES is read from it. Hyp = O=C(O)[C@@H]1C[C@@H](O)CN1
Experiments:
[1] = test system: E2-stimulated growth of immature mouse uterus; assay: Immature mouse uterine growth assay (anti-estrotrophic activity); assay type: in vivo; settings: for inhibition of the uterotrophic effect of estradiol (normalized uterine weight, E2+ Pep vs E2): Pep i.p. one hour before E2, uteri weighed 22 hours later; for dose of maximal (optimal) inhibition of estrogen-stimulated growth of mouse uterus: i.p., dose-response; for effect of 4 M urea treatment on biological activity of stored peptide: stored (aged) peptide, brief treatment with 4 M urea; for biological activity of gel-filtration fraction: aged peptide, 1 μg i.p.
Text: (§1) Twenty-two hours later, uteri were dissected and weighed. […] (FIG. 1a) Peptide dose-response.
(§2) Immature Mouse Uterine Growth Assay.

[2] = test system: MCF-7 human breast cancer xenografts; assay: Human breast cancer xenograft assay, MCF-7; assay type: in vivo; settings: E2 implant; peptide 1 μg i.p. twice a day; tamoxifen 50 μg i.p. once a day; 30-day observation; vs E2 alone
Protocol: (§3) Tumors were implanted as described in Materials and Methods. […] There was a minimum of 5 mice per group. (FIG. 9a) MCF-7 tumors.
Human Breast Cancer Xenograft Assay. A bioassay for anti-breast cancer activity was performed according to Bennett et al. (23;24). Confluent MCF-7 human breast cancer cells were trypsinized into suspension and pelleted by centrifugation at 200× g. The pellet was then solidified into a fibrin clot by exposing it to 10 μl of fibrinogen (50 mg/ml) and 10 μl of thrombin (50 units/ml). The solid mass of MCF-7 cells was then cut into pieces 1.5 mm in diameter. A tumor segment of ˜1.5 mm in diameter was implanted under the kidney capsule of an immunodeficient ICR-SCID male mouse (Taconic Farms) that weighed about 25 g. Estrogen supplementation was accomplished by s.c. implantation of a silastic tubing capsule containing solid E2 inserted on the day of tumor implantation. Peptide was injected i.p. every twelve hours at a dose of 1 μg per mouse. Tumor growth was monitored during survival laparotomy at 10-day intervals by measurement of the diameters of the short (d) and long axes (D) of each tumor, using a dissecting microscope equipped with an ocular micrometer. Tumor volumes were calculated using the formula (π/6)(d)^2D, assuming the tumor shape to be an ellipsoid of revolution around its long axis (D). There were five to seven replicate mice included in each treatment group. Mean tumor volume±standard error in each group was calculated for display of growth curves. Significance of differences between groups were tested using the one-sided Wilcoxon Sum of Ranks Test.

[3] = Shelf-life (storage) studies of lyophilized peptide, read out in the immature mouse uterine growth assay; assay type: physicochemical; settings: for shelf-life: storage in the lyophilized state, tested in immature mouse uterine growth assay; for time in storage after which anti-estrotrophic activity was lost (diminished to insignificant levels): lyophilized, −20° C.
Text: as §1, §2

[4] = Toxicity to mice in the uterine growth assay; assay type: in vivo; settings: even at an effective dose of 1 mg/mouse
Text: as §2

[5] = target: T1, estrogen receptor (Oryctolagus cuniculus, UniProt G1SML6); assay: Assessment of estrogen receptor antagonism ([3H]E2 binding, uterine cytosol); set-up: species or system rabbit; settings: for interference with E2 binding to its receptor: peptide concentration range 10^−10 M to 10^−5 M
T1 sequence (G1SML6 1-598): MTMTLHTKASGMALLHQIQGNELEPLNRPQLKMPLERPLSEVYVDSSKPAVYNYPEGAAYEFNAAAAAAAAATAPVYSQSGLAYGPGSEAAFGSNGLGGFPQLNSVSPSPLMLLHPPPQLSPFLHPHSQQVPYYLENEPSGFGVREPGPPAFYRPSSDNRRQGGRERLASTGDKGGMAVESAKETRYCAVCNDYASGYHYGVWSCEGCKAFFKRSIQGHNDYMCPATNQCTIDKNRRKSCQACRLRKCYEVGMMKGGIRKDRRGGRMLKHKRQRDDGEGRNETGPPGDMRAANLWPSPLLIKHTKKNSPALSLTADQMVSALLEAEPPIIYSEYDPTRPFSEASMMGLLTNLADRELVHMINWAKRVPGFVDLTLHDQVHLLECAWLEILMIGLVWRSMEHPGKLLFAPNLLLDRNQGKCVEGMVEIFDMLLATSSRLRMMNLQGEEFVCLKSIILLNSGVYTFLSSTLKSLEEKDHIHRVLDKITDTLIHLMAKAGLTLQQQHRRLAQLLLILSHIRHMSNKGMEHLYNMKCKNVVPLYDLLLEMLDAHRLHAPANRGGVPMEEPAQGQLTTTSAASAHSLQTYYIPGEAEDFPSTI
Protocol: Assessment of Estrogen Receptor Antagonism. Commercially obtained rabbit uteri (Pel-Freez Biological, Rogers, Ark.) were used as a source of estrogen receptor. […] Total count tubes received 20 μl of [^3H] estradiol and 180 μl of assay buffer.

[6] = test system: MCF-7/Tam human breast cancer xenografts; assay: Human breast cancer xenograft assay, tamoxifen-resistant MCF-7 subline; assay type: in vivo; settings: E2 implant; peptide 1 μg i.p. twice a day; tamoxifen 50 μg i.p. once a day; day 30; vs E2 alone
Protocol: as §3
Cell Lines. T47D and MDA-MB-231 human breast cancer cell lines were purchased from the American Type Culture Collection (Manassas, Va.). Growth medium for T47D cells consisted of RPMI 1640 (Life Technologies, Germantown, Md.) supplemented with 10% fetal bovine serum (Life Technologies) and 8 μg/ml bovine insulin (Sigma, St. Louis, Mo.). Growth medium for MDA-MB-231 consisted of Dulbecco's Modified Eagle Medium (Life Technologies) supplemented with L-glutamine (2 mM), non-essential amino acids (1%, Life Technologies) and bovine insulin (1 μg/ml). The MCF-7 cell line was obtained from Dr. Alberto C. Baldi, Institute of Experimental Biology and Medicine, Buenos Aires, Argentina, and was maintained as previously describedby Gierthy et al. (1991).
Human Breast Cancer Xenograft Assay. […] Tumor growth was monitored during survival laparotomy at 10-day intervals by measurement of the diameters of the short (d) and long axes (D) of each tumor, using a dissecting microscope equipped with an ocular micrometer. Tumor volumes were calculated using the formula (π/6)(d)^2D, assuming the tumor shape to be an ellipsoid of revolution around its long axis (D). […] Mean tumor volume±standard error in each group was calculated for display of growth curves. […]

[7] = test system: T47D human breast cancer xenografts; assay: Human breast cancer xenograft assay, T47D; assay type: in vivo; settings: E2 supplementation; 30-day observation; vs E2 alone
[8] = test system: estrogen-receptor-negative MDA-MB-231 human breast cancer xenografts; assay: Human breast cancer xenograft assay, MDA-MB-231; assay type: in vivo; settings: ER− tumor, 30 day observation
[9] = tamoxifen users; cited from earlier work
[10] = test system: growth of the immature mouse uterus; assay: Uterotrophic effect of test agent alone on immature mouse uterus; assay type: in vivo; settings: even at a dose of 10 μg/mouse
Protocol: Various doses indicated on the abscissa of each test agent were injected i.p. Twenty-two hours later uteri were harvested and weighed.
Immature Mouse Uterine Growth Assay. A bioassay for anti-estrotrophic activity was performed using an immature mouse uterine growth assay (22). Swiss/Webster female mice, 6-8 g in body weight (13-15 days old), were obtained from Taconic Farms (Germantown, N.Y.). […] In a typical experiment, each group received two sequential intraperitoneal injections spaced one hour apart. Test material or vehicle control for that material was contained in the first injectant. Estradiol (E2) or vehicle control for E2 was contained in the second injectant. Twenty-two hours after the second injection, uteri were dissected, trimmed free of mesenteries, and immediately weighed. The uterine weights were normalized to mouse body weights (mg uterine weight/g of body weight) to compensate for differences in body weight among litters of the same age. Experiments employed a minimum of five mice per group, and the mean normalized uterine weight±standard error for each group was calculated. Percent growth inhibition in a test group was calculated from the normalized uterine wet weights as described below.

[11] = test system: tamoxifen-stimulated growth of immature mouse uterus; assay: Inhibition of tamoxifen-stimulated growth of immature mouse uterus; assay type: in vivo; settings: Pep i.p. one hour before Tam, uteri weighed 22 hours later
Text: as §2

[12] = Preliminary pharmacokinetic studies in mice; assay type: in vivo, mouse

Molecule: CSCC[C@@H]1NC(=O)[C@H](CCC(=O)O)NC(=O)[C@H](CCC(N)=O)NC(=O)CNC(=O)[C@@H]2C[C@@H](O)CN2C(=O)[C@H](CC(N)=O)NC(=O)[C@H](C(C)C)NC(=O)[C@@H]2C[C@@H](O)CN2C(=O)[C@H]([C@@H](C)O)NC1=O [cyclo-(SEQ ID NO: 5: EMTOVNOGQ), cyclo-(EMTOVNOGQ)] (cyclo(EMT[Hyp]VN[Hyp]GQ))
anti-estrotrophic activity ([1]; doses higher than 10 μg/mouse): retained significant anti-estrotrophic activity | effect on estrogen-dependent growth (tumor volume) of MCF-7 xenografts [2]: significantly inhibited | shelf-life [3]: indefinite shelf-life | toxicity to the mice [4]: no evidence of toxicity

Molecule: O=C(c1ccc(OCCN2CCCCC2)cc1)c1c(-c2ccc(O)cc2)sc2cc(O)ccc12 [raloxifene, reference compound]
inhibition of estradiol binding to its receptor ([5]; concentration of 100 nM): completely inhibited

Molecule: CC/C(=C(\c1ccccc1)c1ccc(OCCN(C)C)cc1)c1ccccc1 [tamoxifen, reference compound]
effect on estrogen-dependent growth (tumor volume) of MCF-7 xenografts [2]: no increase in tumor volume | effect on growth (tumor volume) of tamoxifen-resistant MCF-7 subline xenografts [6]: only minimally effective | effect on growth (tumor volume) of T47D xenografts [7]: prevented growth | effect on growth (tumor volume) of MDA-MB-231 xenografts [8]: did not affect the growth | users in whom uterine cancer is caused (side effect) [9]: 0.2%

interference with E2 binding to its receptor [5]: no interference | interference with E2 binding to its receptor ([5]; listed as linear hydroxyproline-containing octapeptide): did not interfere
Molecule: EMTOVNOG (EMT[Hyp]VN[Hyp]G) [SEQ ID NO: 4: EMTOVNOG, linear octapeptide where O is hydroxyproline (4-hydroxyproline for both prolines)]
inhibition of the uterotrophic effect of estradiol (normalized uterine weight, E2+ Pep vs E2) [1]: inhibited | inhibition of the uterotrophic effect of estradiol (normalized uterine weight, E2+ Pep vs E2) ([1]; listed as AFP-derived peptide): significantly different | dose of maximal (optimal) inhibition of estrogen-stimulated growth of mouse uterus [1]: 1 μg/mouse | effect on estrogen-dependent growth (tumor volume) of MCF-7 xenografts [2]: inhibited; also recorded: no significant increase in tumor volume | effect on growth (tumor volume) of tamoxifen-resistant MCF-7 subline xenografts [6]: completely stopped the growth | effect on growth (tumor volume) of T47D xenografts [7]: completely prevented tumor growth | effect on growth (tumor volume) of MDA-MB-231 xenografts [8]: no effect | effect on growth (tumor volume) of MDA-MB-231 xenografts ([8]; listed as AFP-derived peptide): no differences in tumor volumes | uterotrophic effect [10]: no uterotrophic effect whatsoever | inhibition of tamoxifen's uterotrophic effect (normalized uterine weight, Tam+ Pep vs Tam) [11]: significantly inhibited | inhibition of tamoxifen's uterotrophic effect (normalized uterine weight, Tam+ Pep vs Tam) ([11]; listed as AFP-derived peptide): significantly different | inhibition of tamoxifen's uterotrophic effect (normalized uterine weight, Tam+ Pep vs Tam) ([11]; listed as Peptide): inhibited | shelf-life [3]: indefinite shelf-life | biological half-life [12]: two to three

Molecule: EMTPVNPG [SEQ ID NO: 6: EMTPVNPG, native AFP-derived octapeptide, amino acids 472-479 of alpha-fetoprotein, reference compound]
dose of maximal (optimal) inhibition of estrogen-stimulated growth of mouse uterus [1]: ~1 μg/mouse | effect of 4 M urea treatment on biological activity of stored peptide [1]: regenerated | effect of excipient on shelf-life of the peptide ([3]; excipient: dodecylmaltoside): significantly prolonged shelf-life | effect of excipient on shelf-life of the peptide ([3]; excipient: mannitol): significantly prolonged shelf-life | effect of excipient on shelf-life of the peptide ([3]; excipient: sucrose): did not do so | time in storage after which anti-estrotrophic activity was lost (diminished to insignificant levels) [3]: four to five

Molecule: EMTPVNPGQ [SEQ ID NO: 7: EMTPVNPGQ, linear nonapeptide, glutamine residue added to the C-terminus of the native octapeptide]
dose of maximal (optimal) inhibition of estrogen-stimulated growth of mouse uterus [1]: 1 μg/mouse

Molecule: QMTPVNPG [SEQ ID NO: 2: QMTPVNPG, linear octapeptide analog of the AFP octapeptide, N-terminal glutamic acid substituted with glutamine]
biological activity of gel-filtration fraction ([1]; higher molecular weight fraction): biologically inactive | biological activity of gel-filtration fraction ([1]; lower molecular weight fraction): active | dose of maximal (optimal) inhibition of estrogen-stimulated growth of mouse uterus [1]: 1 μg/mouse | effect of 4 M urea treatment on biological activity of stored peptide [1]: restored its biological activity | biological activity of aged peptide ([1]; stored in the lyophilized state at −20° C. for over one year): completely biologically inactive | time in storage after which anti-estrotrophic activity was lost (diminished to insignificant levels) [3]: five and four to five | shelf-life [3]: stored somewhat better than the native octapeptide

Molecule: cyclo-(EMTPVNPGQ) (head-to-tail cyclization) [head-to-tail cyclized nonapeptide]
inhibition of estrogen-stimulated growth of immature mouse uterus ([1]; at the optimal dose of the linear peptides (1 μg)): very active | effect of 4 M urea treatment on biological activity of stored peptide [1]: restored the optimal biological activity | shelf-life [3]: somewhat extended but still rather limited shelf-life | biological activity after prolonged storage ([3]; storage of six months): significant, albeit not optimal, biological activity

Source: US6818741B2, “Alpha-fetoprotein peptides and uses therof” (CLF Medical Technology Acceleration Program, Inc., priority 2000, dated 2004)
